Converted amounts (≈) assume the structure as drawn.
What was measured:
[1] = system: Pseudomonas fluorescens; assay: Antibacterial activity against Pseudomonas fluorescens at 3 ug after 8 hrs; type: functional
[2] = system: Staphylococcus aureus; assay: Antibacterial activity against Staphylococcus aureus at 10 ug after 12 hrs; type: functional
[3] = system: Mycolicibacterium smegmatis; assay: Antitubercular activity against dormant Mycobacterium smegmatis MC2 155 at 30 ug after 12 days by XTT-Menadione assay; type: functional, str. MC2 155
[4] = system: Mycolicibacterium smegmatis; assay: Antitubercular activity against dormant Mycobacterium smegmatis MC2 155 at 10 ug after 12 days by XTT-Menadione assay; type: functional, str. MC2 155
[5] = system: Staphylococcus aureus; assay: Antibacterial activity against Staphylococcus aureus at 3 ug after 12 hrs; type: functional
[6] = system: Mycobacterium tuberculosis; assay: Antitubercular activity against dormant Mycobacterium tuberculosis H37Ra at 10 ug after 12 days by XTT-Menadione assay; type: functional
[7] = Cytotoxicity against human THP1 cells after 5 days by MTT assay; type: cell-based, THP-1
[8] = system: Mycobacterium tuberculosis; assay: Antitubercular activity against dormant Mycobacterium tuberculosis H37Ra after 12 days by XTT-Menadione assay; type: functional, organism-based; conditions: 288 h
[9] = system: Bacillus subtilis; assay: Antibacterial activity against Bacillus subtilis at 3 ug after 12 hrs; type: functional
[10] = system: Escherichia coli; assay: Antibacterial activity against Escherichia coli at 10 ug after 8 hrs; type: functional
[11] = system: A549; assay: (§1) Cytotoxicity against human A549 cells after 3 days by MTT assay; type: cell-based; conditions: Homo sapiens, A549, 72 h
[12] = as §1; type: cell-based; conditions: human, A549 cells; read-out: MIC
[13] = system: Mycobacterium tuberculosis; assay: Antitubercular activity against dormant Mycobacterium tuberculosis H37Ra at 30 ug after 12 days by XTT-Menadione assay; type: functional
[14] = system: Escherichia coli; assay: Antibacterial activity against Escherichia coli at 3 ug after 8 hrs; type: functional
[15] = system: MCF7; assay: (§2) Cytotoxicity against human MCF7 cells after 4 days by MTT assay; type: cell-based; conditions: Homo sapiens, MCF7, 96 h
[16] = as §2; type: cell-based; conditions: human, MCF7 cells; read-out: MIC
[17] = system: Mycobacterium tuberculosis; assay: Antitubercular activity against dormant Mycobacterium tuberculosis H37Ra at 3 ug after 12 days by XTT-Menadione assay; type: functional
[18] = system: Mycolicibacterium smegmatis; assay: Antitubercular activity against dormant Mycobacterium smegmatis MC2 155 at 3 ug after 12 days by XTT-Menadione assay; type: functional, str. MC2 155
[19] = system: Bacillus subtilis; assay: Antibacterial activity against Bacillus subtilis at 30 ug after 12 hrs; type: functional
[20] = system: Pseudomonas fluorescens; assay: Antibacterial activity against Pseudomonas fluorescens at 10 ug after 8 hrs; type: functional
[21] = system: Pseudomonas fluorescens; assay: Antibacterial activity against Pseudomonas fluorescens at 30 ug after 8 hrs; type: functional
[22] = system: Bacillus subtilis; assay: Antibacterial activity against Bacillus subtilis at 10 ug after 12 hrs; type: functional
[23] = Cytotoxicity against human PANC1 cells after 5 days by MTT assay; type: cell-based, PANC-1
[24] = system: Escherichia coli; assay: Antibacterial activity against Escherichia coli at 30 ug after 8 hrs; type: functional
[25] = system: Staphylococcus aureus; assay: Antibacterial activity against Staphylococcus aureus at 30 ug after 12 hrs; type: functional

## O=C(NN1C(=O)CS[C@@H]1c1ccc(Cl)cc1)c1cnccn1
[1]
  inhibition (INH): 8.12%
[2]
  inhibition (INH): 12.54%
[3]
  inhibition (INH): -1.593%
[4]
  inhibition (INH): -6.521%
[5]
  inhibition (INH): 8.74%
[6]
  inhibition (INH): 66.53%
[7]; Homo sapiens, THP-1, 120 h
  IC50: > 100 µg/mL
[7]; human, THP1 cells, read-out: MIC
  MCC at 120 h: > 100 µg/mL
[8]
  IC50: 1.09 µg/mL (≈ 3.26 µM)
  MIC: 28.8 µg/mL (≈ 86.1 µM)
[9]
  inhibition (INH): -13.1%
[10]
  inhibition (INH): 38.71%
[11]
  IC50: > 100 µg/mL
[12]
  MCC at 72 h: > 100 µg/mL
[13]
  inhibition (INH): 91.2%
[14]
  inhibition (INH): -35.07%
[15]
  IC50: > 100 µg/mL
[16]
  MCC at 96 h: > 100 µg/mL
[17]
  inhibition (INH): 66.68%
[18]
  inhibition (INH): 41.55%
[19]
  inhibition (INH): 17.44%
[20]
  inhibition (INH): 3.658%
[21]
  inhibition (INH): 14.72%
[22]
  inhibition (INH): 9.6%
[23]; Homo sapiens, PANC-1, 120 h
  IC50: > 100 µg/mL
[23]; human, PANC1 cells, read-out: MIC
  MCC at 120 h: > 100 µg/mL
[24]
  inhibition (INH): 51.04%
[25]
  inhibition (INH): -47.91%

— ChEMBL document CHEMBL3792312, “Synthesis and docking studies of pyrazine-thiazolidinone hybrid scaffold targeting dormant tuberculosis” (Bioorg Med Chem Lett, 2016)
